In ChEMBL document CHEMBL5634143, “Development of teixobactin analogues containing hydrophobic, non-proteogenic amino acids that are highly potent against multidrug-resistant bacteria and biofilms” (Eur J Med Chem, 2023):
Values after ≈ are worked out from the molar mass of the structure shown. Active and inactive are the calls of the source. The rule behind the calls is not given here.

Legend:
Cell membrane [1] = assay: Induction of cytoplasmic membrane depolarization in methicilin-resistant Staphylococcus aureus 21455 at 8 times MIC by DiSC3(5) dye-based fluorescence assay
Bacillus cereus = assay: Antibacterial activity against Bacillus cereus ATCC 11788 assessed as inhibition of bacterial growth; assay type: functional
Staphylococcus aureus [2] = assay: Antibacterial activity against methicilin-resistant Staphylococcus aureus 21455 assessed as inhibition of bacterial growth; assay type: functional
Staphylococcus aureus [3] = assay: Antibacterial activity against Staphylococcus aureus 15981 assessed as inhibition of biofilm formation at 10 ug/ml incubated for 5 hrs by confocal microscopic analysis; assay type: functional, organism-based; details: dose 10.0 µg/ml
[4] = test system: Staphylococcus epidermidis; assay: Antibacterial activity against Staphylococcus epidermidis 1457 assessed as inhibition of biofilm formation at 10 ug/ml incubated for 5 hrs by confocal microscopic analysis; assay type: functional, organism-based; details: dose 10.0 µg/ml
[5] = test system: Staphylococcus saprophyticus; assay: Antibacterial activity against Staphylococcus saprophyticus ATCC 49907 assessed as inhibition of bacterial growth; assay type: functional
[6] = test system: Staphylococcus saprophyticus; assay: Antibacterial activity against Staphylococcus saprophyticus ATCC 15305 assessed as inhibition of bacterial growth; assay type: functional
Enterococcus faecium [7] = assay: Antibacterial activity against Vancomycin-resistant Enterococcus […] ATCC 29212 assessed as inhibition of bacterial growth; assay type: functional; details: Enterococcus faecalis
Staphylococcus aureus [8] = assay: Antibacterial activity against methicilin-resistant Staphylococcus aureus 1003 assessed as inhibition of bacterial growth; assay type: functional
Staphylococcus aureus [9] = assay: Antibacterial activity against methicilin-resistant Staphylococcus aureus ATCC 700699 assessed as inhibition of bacterial growth; assay type: functional
[10] = test system: Staphylococcus saprophyticus; assay: Antibacterial activity against Staphylococcus saprophyticus ATCC BAA 750 assessed as inhibition of bacterial growth; assay type: functional
Staphylococcus aureus [11] = assay: Antibacterial activity against Staphylococcus aureus 4299 assessed as inhibition of bacterial growth; assay type: functional
Cell membrane [12] = assay: Induction of cytoplasmic membrane depolarization in methicilin-resistant Staphylococcus aureus 21455 at 16 times MIC by DiSC3(5) dye-based fluorescence assay
[13] = test system: Staphylococcus saprophyticus; assay: Antibacterial activity against Staphylococcus saprophyticus ATCC 49453 assessed as inhibition of bacterial growth; assay type: functional
Cell membrane [14] = assay: Induction of cell membrane […] in methicilin-resistant Staphylococcus aureus 21455 assessed as increase in fluorescence intensity at 8 times MIC by SYTOX green dye based fluorescence analysis; assay type: cell membranes
Staphylococcus aureus [15] = assay: Antibacterial activity against methicilin-resistant Staphylococcus aureus 42412 assessed as inhibition of bacterial growth; assay type: functional
Enterococcus faecium [16] = assay: Antibacterial activity against Vancomycin-resistant Enterococcus faecium 1014 assessed as inhibition of bacterial growth; assay type: functional
Pseudomonas aeruginosa [17] = assay: Antibacterial activity against Pseudomonas aeruginosa ATCC 9027 assessed as inhibition of bacterial growth; assay type: functional
Pseudomonas aeruginosa [18] = assay: Antibacterial activity against Pseudomonas aeruginosa DSMZ 1117 assessed as inhibition of bacterial growth; assay type: functional
Bacillus subtilis = assay: Antibacterial activity against Bacillus subtilis ATCC 6633 assessed as inhibition of bacterial growth; assay type: functional
[19] = Hemolytic activity in rabbit erythrocytes assessed as hemolysis at 512 microg/ml relative to control; assay type: toxicity, cell-based, Oryctolagus cuniculus, Erythrocyte; details: at 512 µg/mL, read-out: Activity
Staphylococcus aureus [20] = assay: Bactericidal activity against methicilin-resistant Staphylococcus aureus 21455 assessed as reduction in bacterial colony forming unit at 16 times MIC observed after 8 hrs by time-kill kinetic assay; assay type: functional, organism-based
Cell membrane [21] = assay: Induction of cell membrane […] in methicilin-resistant Staphylococcus aureus 21455 assessed as increase in fluorescence intensity at 16 times MIC by SYTOX green dye based fluorescence analysis; assay type: cell membranes
Staphylococcus aureus [22] = assay: Antibacterial activity against Staphylococcus aureus 29213 assessed as inhibition of bacterial growth; assay type: functional
Staphylococcus aureus [23] = assay: Bactericidal activity against methicilin-resistant Staphylococcus aureus 21455 assessed as reduction in bacterial colony forming unit at 16 times MIC observed after 24 hrs by time-kill kinetic assay; assay type: functional, organism-based
[24] = test system: Staphylococcus epidermidis; assay: Antibacterial activity against Staphylococcus epidermidis 12228 assessed as inhibition of bacterial growth; assay type: functional
Enterococcus faecium [25] = assay: Antibacterial activity against Vancomycin-resistant Enterococcus […] ATCC 700802 assessed as inhibition of bacterial growth; assay type: functional
Staphylococcus aureus [26] = assay: Bactericidal activity against methicilin-resistant Staphylococcus aureus 21455 assessed as inhibition of bacterial growth by time-kill kinetic assay; assay type: functional, organism-based
Staphylococcus aureus [27] = assay: Bactericidal activity against methicilin-resistant Staphylococcus aureus 21455 assessed as reduction in bacterial growth by measuring minimum bactericidal concentration at 4 times MIC by time-kill kinetic assay; assay type: functional

| SMILES | MIC (Bacillus cereus) | MIC (Staphylococcus aureus [2]) | Activity (Staphylococcus aureus [3]) | Activity [4] | MIC [5] | MIC [6] | MIC (Enterococcus faecium [7]) | MIC (Staphylococcus aureus [8]) | MIC (Staphylococcus aureus [9]) | MIC [10] | MIC (Staphylococcus aureus [11]) | MIC [13] | MIC (Staphylococcus aureus [15]) | MIC (Enterococcus faecium [16]) | MIC (Bacillus subtilis) | hemolysis at 512 microg/ml [19] | MIC (Staphylococcus aureus [22]) | MIC [24] | MIC (Enterococcus faecium [25]) | Activity (Staphylococcus aureus [26]) | further results |
| --- | --- | --- | --- | --- | --- | --- | --- | --- | --- | --- | --- | --- | --- | --- | --- | --- | --- | --- | --- | --- | --- |
| CC[C@H](C)[C@H](NC(=O)[C@@H](Cc1ccccc1)NC)C(=O)N[C@@H](CO)C(=O)N[C@H](CCCNC(=N)N)C(=O)N[C@@H](C(=O)N[C@H](C(=O)N[C@@H](CO)C(=O)N[C@H]1C(=O)N[C@@H](C)C(=O)N[C@@H](C2CCCCC2)C(=O)N[C@@H]([C@@H](C)CC)C(=O)O[C@H]1C)[C@@H](C)CC)[C@@H](C)CC | 0.063 µg/mL (≈ 0.0502 µM) | 0.25 µg/mL (≈ 0.199 µM) | Active | Active | 0.063 µg/mL (≈ 0.0502 µM) | < 0.063 µg/mL | 0.063 µg/mL (≈ 0.0502 µM) | 0.063 µg/mL (≈ 0.0502 µM) | 0.063 µg/mL (≈ 0.0502 µM) | 0.063 µg/mL (≈ 0.0502 µM) | 0.063 µg/mL (≈ 0.0502 µM) | < 0.063 µg/mL | 0.063 µg/mL (≈ 0.0502 µM) | 0.063 µg/mL (≈ 0.0502 µM) | 0.063 µg/mL (≈ 0.0502 µM) | ≤ 2% | 0.063 µg/mL (≈ 0.0502 µM) | 0.063 µg/mL (≈ 0.0502 µM) | 0.063 µg/mL (≈ 0.0502 µM) | Dose-Dependent Effect | Activity (Cell membrane [1]): inactive; Activity (Cell membrane [12]): inactive; Activity (Cell membrane [14]): Active; MIC (Pseudomonas aeruginosa [17]): > 32 µg/mL; MIC (Pseudomonas aeruginosa [18]): > 32 µg/mL; Activity (Staphylococcus aureus [20]): Active; Activity (Cell membrane [21]): Active; Activity (Staphylococcus aureus [23]): Active |
| CCCC[C@@H]1NC(=O)[C@H](C)NC(=O)[C@H](NC(=O)[C@H](CO)NC(=O)[C@@H](NC(=O)[C@H](NC(=O)[C@@H](CCC(N)=O)NC(=O)[C@H](CO)NC(=O)[C@@H](NC(=O)[C@@H](Cc2ccccc2)NC)[C@@H](C)CC)[C@@H](C)CC)[C@@H](C)CC)[C@H](C)OC(=O)[C@H]([C@@H](C)CC)NC1=O | 0.063 µg/mL (≈ 0.0524 µM) | 0.25 µg/mL (≈ 0.208 µM) | Active | Active | 0.063 µg/mL (≈ 0.0524 µM) | 0.063 µg/mL (≈ 0.0524 µM) | 1 µg/mL (≈ 0.832 µM) | 0.5 µg/mL (≈ 0.416 µM) | 0.5 µg/mL (≈ 0.416 µM) | 0.063 µg/mL (≈ 0.0524 µM) | 0.25 µg/mL (≈ 0.208 µM) | 0.063 µg/mL (≈ 0.0524 µM) | 0.125 µg/mL (≈ 0.104 µM) | 1 µg/mL (≈ 0.832 µM) | 0.063 µg/mL (≈ 0.0524 µM) | ≤ 2% | 0.063 µg/mL (≈ 0.0524 µM) | 0.063 µg/mL (≈ 0.0524 µM) | 0.5 µg/mL (≈ 0.416 µM) | Dose-Dependent Effect | MBC (Staphylococcus aureus [27]): 1 µg/mL (≈ 0.832 µM) |
